Assay results published in patent publication US20250136595A1, “ACYLATED HETEROCYCLIC QUINAZOLINE DERIVATIVES AS INHIBITORS OF ERBB2” (Enliven Inc., priority 2022, published 2025).
pIC50: −log10 of the molar value.

Assays:
Ba/F3 ERBB2 YVMA = Ba/F3 ERBB2 YVMA (Homo sapiens, UniProt P04626, DUP772-775, cells depend on it); assay: Cell viability assay (CellTiter Glo) in Ba/F3 cells engineered to express ERBB2 YVMA; format: cell-based, mouse; settings: Ba/F3 cells expressing human ERBB2 YVMA mutant, 72 hours, % viability, read-out: Ba/F3 ERBB2 YVMA IC50
Ba/F3 ERBB2 YVMA, sequence (P04626 with tags, fused parts or gaps DUP772-775): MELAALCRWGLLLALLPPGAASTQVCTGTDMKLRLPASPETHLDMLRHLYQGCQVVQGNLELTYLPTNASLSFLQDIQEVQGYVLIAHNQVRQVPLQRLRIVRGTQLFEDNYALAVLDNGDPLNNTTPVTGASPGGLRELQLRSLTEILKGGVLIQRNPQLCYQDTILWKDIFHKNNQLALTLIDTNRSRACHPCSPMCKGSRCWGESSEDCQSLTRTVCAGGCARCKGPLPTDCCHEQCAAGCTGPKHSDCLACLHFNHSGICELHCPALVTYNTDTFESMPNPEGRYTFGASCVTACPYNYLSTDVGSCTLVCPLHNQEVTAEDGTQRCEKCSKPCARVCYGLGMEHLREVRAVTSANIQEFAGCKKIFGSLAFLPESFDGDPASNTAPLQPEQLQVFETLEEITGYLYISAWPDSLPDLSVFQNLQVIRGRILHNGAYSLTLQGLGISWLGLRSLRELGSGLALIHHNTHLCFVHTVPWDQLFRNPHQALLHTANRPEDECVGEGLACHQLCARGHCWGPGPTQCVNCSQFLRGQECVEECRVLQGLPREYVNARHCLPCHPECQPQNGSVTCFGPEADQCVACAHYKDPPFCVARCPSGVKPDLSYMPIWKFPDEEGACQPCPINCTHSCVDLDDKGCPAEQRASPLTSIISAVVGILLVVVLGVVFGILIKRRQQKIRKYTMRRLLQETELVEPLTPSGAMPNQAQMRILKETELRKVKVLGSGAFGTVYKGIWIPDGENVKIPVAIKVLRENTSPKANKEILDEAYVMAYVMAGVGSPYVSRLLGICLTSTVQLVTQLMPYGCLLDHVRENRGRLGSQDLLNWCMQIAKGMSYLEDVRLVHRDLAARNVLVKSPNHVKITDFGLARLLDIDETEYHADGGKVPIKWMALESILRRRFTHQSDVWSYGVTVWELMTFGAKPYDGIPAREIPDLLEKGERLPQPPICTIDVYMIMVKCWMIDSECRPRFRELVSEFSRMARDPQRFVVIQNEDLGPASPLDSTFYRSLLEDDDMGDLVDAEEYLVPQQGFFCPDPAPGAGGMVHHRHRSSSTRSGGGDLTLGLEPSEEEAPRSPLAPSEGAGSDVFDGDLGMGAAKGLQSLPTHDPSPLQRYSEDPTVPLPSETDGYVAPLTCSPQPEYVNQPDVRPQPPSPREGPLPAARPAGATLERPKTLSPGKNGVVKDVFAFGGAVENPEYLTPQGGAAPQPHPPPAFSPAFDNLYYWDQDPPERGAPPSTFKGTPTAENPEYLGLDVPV
In short: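 IL-3-independent mouse Ba/F3 line stably transduced with human ERBB2 YVMA, seeded at 3000 cells/well, exposed to serially diluted compound (≤0.1% DMSO) for 72 h at 37° C. ATP read by CellTiter Glo luminescence, normalised to DMSO and media-only controls; sigmoidal nonlinear regression fit.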

[1] = target: T1, phosphorylated ERBB2 (pERBB2) (Homo sapiens, UniProt P04626); assay: Detection of phosphorylated ERBB2 (pERBB2) by ELISA in BT-474 cells; format: cell-based; settings: four hour incubation with compound
T1 construct: endogenous in cells; host or cells: BT-474
T1 sequence (P04626 23-1255): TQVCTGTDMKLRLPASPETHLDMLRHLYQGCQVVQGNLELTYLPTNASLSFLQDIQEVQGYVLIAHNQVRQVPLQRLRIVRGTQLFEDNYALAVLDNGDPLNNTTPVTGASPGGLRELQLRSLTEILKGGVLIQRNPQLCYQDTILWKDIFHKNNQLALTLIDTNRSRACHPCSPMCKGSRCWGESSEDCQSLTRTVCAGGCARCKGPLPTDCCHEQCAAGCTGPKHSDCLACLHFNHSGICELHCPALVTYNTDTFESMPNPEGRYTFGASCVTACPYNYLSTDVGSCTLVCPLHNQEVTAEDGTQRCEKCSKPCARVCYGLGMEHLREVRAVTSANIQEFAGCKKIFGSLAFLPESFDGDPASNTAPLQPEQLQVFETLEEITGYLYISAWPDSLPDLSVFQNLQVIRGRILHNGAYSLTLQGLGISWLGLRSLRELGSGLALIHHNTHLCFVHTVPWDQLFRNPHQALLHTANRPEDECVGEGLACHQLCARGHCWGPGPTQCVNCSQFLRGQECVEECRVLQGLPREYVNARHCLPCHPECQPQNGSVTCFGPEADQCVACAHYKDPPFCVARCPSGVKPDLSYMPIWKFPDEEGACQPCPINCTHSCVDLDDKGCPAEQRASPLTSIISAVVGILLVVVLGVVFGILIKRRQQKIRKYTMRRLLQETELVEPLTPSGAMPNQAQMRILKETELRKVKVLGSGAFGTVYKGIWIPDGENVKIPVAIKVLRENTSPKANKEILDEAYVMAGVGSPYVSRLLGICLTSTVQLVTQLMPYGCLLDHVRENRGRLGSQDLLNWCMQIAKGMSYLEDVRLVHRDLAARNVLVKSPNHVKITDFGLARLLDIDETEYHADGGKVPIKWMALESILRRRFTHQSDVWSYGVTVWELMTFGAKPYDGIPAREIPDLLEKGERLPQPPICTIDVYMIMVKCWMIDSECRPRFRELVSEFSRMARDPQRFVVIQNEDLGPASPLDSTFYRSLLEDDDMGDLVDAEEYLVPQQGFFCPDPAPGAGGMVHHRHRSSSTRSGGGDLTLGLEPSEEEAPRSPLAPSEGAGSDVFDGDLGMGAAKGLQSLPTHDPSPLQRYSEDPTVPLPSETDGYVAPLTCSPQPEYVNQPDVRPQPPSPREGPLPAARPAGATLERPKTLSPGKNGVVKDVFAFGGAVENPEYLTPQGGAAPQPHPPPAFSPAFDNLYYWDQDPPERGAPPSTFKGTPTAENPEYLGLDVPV
In short: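 BT-474 cells treated 4 h at 37 °C, 5% CO2 with four-fold dilutions (10 μM to 0.01 nM final). Lysates analysed by ELISA for pERBB2, TMB read at OD 450 nm. % relative activity normalised to no-cell (low) and 0.1% DMSO-treated (high) controls.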

[2] = target: T2, phosphorylated EGFR (pEGFR) (Homo sapiens, UniProt P00533); assay: Detection of phosphorylated EGFR (pEGFR) in EGF-stimulated A431 cells (AlphaLISA); format: cell-based; settings: A431 cells (10% FBS), 4 hours incubation, EGF 30 ng/mL for 10 minutes
T2 construct: performed to measure phosphorylated EGFR levels using A431 cells; endogenous in cells; host or cells: A431
T2 sequence (P00533 25-1210): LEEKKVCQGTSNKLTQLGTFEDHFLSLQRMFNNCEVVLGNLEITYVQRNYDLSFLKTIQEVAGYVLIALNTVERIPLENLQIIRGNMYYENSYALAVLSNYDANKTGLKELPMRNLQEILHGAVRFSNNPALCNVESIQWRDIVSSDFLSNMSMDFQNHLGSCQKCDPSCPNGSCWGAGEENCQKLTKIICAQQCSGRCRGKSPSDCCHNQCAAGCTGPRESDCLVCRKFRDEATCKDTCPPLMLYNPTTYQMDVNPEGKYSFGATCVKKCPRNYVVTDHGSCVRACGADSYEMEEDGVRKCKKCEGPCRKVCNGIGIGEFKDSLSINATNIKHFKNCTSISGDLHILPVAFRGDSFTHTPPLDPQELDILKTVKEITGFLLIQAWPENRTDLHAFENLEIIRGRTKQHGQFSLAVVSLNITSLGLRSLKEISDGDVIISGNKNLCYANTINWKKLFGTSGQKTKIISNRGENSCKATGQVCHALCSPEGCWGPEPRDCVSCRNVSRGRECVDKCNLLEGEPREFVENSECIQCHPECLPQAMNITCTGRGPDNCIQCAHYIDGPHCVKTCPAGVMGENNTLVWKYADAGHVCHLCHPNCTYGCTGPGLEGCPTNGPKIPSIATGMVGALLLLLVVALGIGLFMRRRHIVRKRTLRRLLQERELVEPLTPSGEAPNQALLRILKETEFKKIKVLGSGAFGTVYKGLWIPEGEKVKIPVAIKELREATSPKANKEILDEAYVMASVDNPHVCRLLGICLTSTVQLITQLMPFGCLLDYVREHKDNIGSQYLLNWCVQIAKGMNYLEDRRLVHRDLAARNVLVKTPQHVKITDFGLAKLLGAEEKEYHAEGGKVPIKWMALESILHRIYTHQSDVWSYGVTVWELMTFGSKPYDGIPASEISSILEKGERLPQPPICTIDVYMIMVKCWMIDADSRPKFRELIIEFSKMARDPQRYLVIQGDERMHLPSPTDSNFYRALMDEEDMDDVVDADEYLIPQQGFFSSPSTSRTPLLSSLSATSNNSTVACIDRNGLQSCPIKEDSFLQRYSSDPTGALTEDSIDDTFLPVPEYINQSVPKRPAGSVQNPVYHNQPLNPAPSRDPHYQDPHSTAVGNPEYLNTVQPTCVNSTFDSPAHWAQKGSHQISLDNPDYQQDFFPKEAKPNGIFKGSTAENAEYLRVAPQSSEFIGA
In short: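 Cells in 10% FBS treated with compound 4 h at 37° C., then stimulated 10 min with 30 ng/mL EGF, lysed, and pEGFR measured by AlphaLISA. Inhibition normalized to DMSO and staurosporine controls; IC50 from four-parameter logistic fit.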

| SMILES | GI50 (Ba/F3 ERBB2 YVMA) | pIC50 [1] | pIC50 [2] |
| --- | --- | --- | --- |
| C=CC(=O)N1CCN(c2ccc3ncnc(Nc4ccc(Cc5ccn6ncnc6c5)c(C)c4)c3c2F)C(C)C1 (stereo not drawn) [Compound 79, 1-(4-(4-((4-([1,2,4]triazolo[1,5-a]pyridin-7-ylmethyl)-3-methylphenyl)amino)-5-fluoroquinazolin-6-yl)-3-methylpiperazin-1-yl)prop-2-en-1-one] | > 500 nM | 5.80 | < 5.00 |
| Cc1cc(Nc2ncnc3ccc(N4CCN(C(=O)/C=C/CN(C)C)[C@H](C)C4)nc23)ccc1Cc1ccc2c(c1)ncn2C [Compound 121, (R,E)-4-(dimethylamino)-1-(2-methyl-4-(4-((3-methyl-4-((1-methyl-1H-benzo[d]imidazol-5-yl)methyl)phenyl)amino)pyrido[3,2-d]pyrimidin-6-yl)piperazin-1-yl)but-2-en-1-one] | 9.08 nM | 7.25 | 5.17 |
| C=CC(=O)N1CCN(c2ccc3ncnc(Nc4ccc(Oc5ccc6c(c5)ncn6C)c(C)c4)c3n2)[C@@H](C)C1 [Compound 67, 1-[(3S)-3-methyl-4-[4-({3-methyl-4-[(1-methyl-1,3-benzodiazol-5-yl)oxy]phenyl}amino)pyrido[3,2-d]pyrimidin-6-yl]piperazin-1-yl]prop-2-en-1-one] | 13.9 nM | 7.55 | 5.60 |
| C=CC(=O)N1CCN(c2cc3c(Nc4ccc(O[C@@H]5CCCOC5)c(C)c4)ncnc3cn2)CC1 [Compound 100, 1-{4-[4-({3-methyl-4-[(3R)-oxan-3-yloxy]phenyl}amino)pyrido[3,4-d]pyrimidin-6-yl]piperazin-1-yl}prop-2-en-1-one] | 98.5 nM | 7.20 | 6.47 |
| C=CC(=O)N1CCN(c2ccc3ncnc(Nc4ccc(Oc5ccc6scnc6c5)c(C)c4)c3n2)CC1 [Compound 119, 1-(4-(4-((4-(benzo[d]thiazol-5-yloxy)-3-methylphenyl)amino)pyrido[3,2-d]pyrimidin-6-yl)piperazin-1-yl)prop-2-en-1-one] | 4.67 nM | 7.59 | 7.01 |
| C=CC(=O)N1CC[C@@H](Nc2ccc3ncnc(Nc4ccc(Oc5ccn6ncnc6c5)c(C)c4)c3n2)C1 [Compound 44, 1-[(3R)-3-({4-[(3-methyl-4-{[1,2,4]triazolo[1,5-a]pyridin-7-yloxy}phenyl)amino]pyrido[3,2-d]pyrimidin-6-yl}amino)pyrrolidin-1-yl]prop-2-en-1-one] | 2.58 nM | 8.20 | 6.57 |
| C=CC(=O)N1CCN(c2ccc3ncnc(Nc4ccc(O[C@@H]5CCCOC5)c(C)c4)c3n2)CC1 [Compound 98, 1-{4-[4-({3-methyl-4-[(3R)-oxan-3-yloxy]phenyl}amino)pyrido[3,2-d]pyrimidin-6-yl]piperazin-1-yl}prop-2-en-1-one] | 64.4 nM | 7.18 | 6.73 |
| C=CC(=O)N1CCN(c2cc3c(Nc4ccc(Cc5ccc6c(c5)ncn6C)c(C)c4)ncnc3cn2)C[C@H]1C [Compound 97, (R)-1-(2-methyl-4-(4-((3-methyl-4-((1-methyl-1H-benzo[d]imidazol-5-yl)methyl)phenyl)amino)pyrido[3,4-d]pyrimidin-6-yl)piperazin-1-yl)prop-2-en-1-one] | 52.4 nM | 7.62 | 5.31 |
| C=CC(=O)N1CCN(c2ncc3ncnc(Nc4ccc(Cc5ccc6c(c5)ncn6C)c(C)c4)c3n2)[C@@H](C)C1 [Compound 77, 1-[(3S)-3-methyl-4-[8-({3-methyl-4-[(1-methyl-1,3-benzodiazol-5-yl)methyl]phenyl}amino)-[1,3]diazino[5,4-d]pyrimidin-2-yl]piperazin-1-yl]prop-2-en-1-one] | 16.4 nM | 7.13 | 5.45 |
| C=CC(=O)N1CCN(c2cc3c(Nc4ccc(OC5CCN(C(=O)CC(C)(C)C)CC5)c(C)c4)ncnc3cn2)CC1 [Compound 3, 3,3-dimethyl-1-{4-[2-methyl-4-({6-[4-(prop-2-enoyl)piperazin-1-yl]pyrido[3,4-d]pyrimidin-4-yl}amino)phenoxy]piperidin-1-yl}butan-1-one] | 40.2 nM | 7.37 | 5.77 |
| C=CC(=O)N1CCN(c2ncc3ncnc(Nc4ccc(Cc5ccn6ncnc6c5)c(C)c4)c3n2)CC1 [Compound 115, 1-(4-(8-((4-([1,2,4]triazolo[1,5-a]pyridin-7-ylmethyl)-3-methylphenyl)amino)pyrimido[5,4-d]pyrimidin-2-yl)piperazin-1-yl)prop-2-en-1-one] | 9.29 nM | 7.77 | 5.37 |
| C=CC(=O)N1CCN(c2ccc3ncnc(Nc4ccc(Oc5ccn6ncnc6c5)c(C)c4)c3n2)C[C@@H]1C [Compound 9, 1-[(2S)-2-methyl-4-{4-[(3-methyl-4-{[1,2,4]triazolo[1,5-a]pyridin-7-yloxy}phenyl)amino]pyrido[3,2-d]pyrimidin-6-yl}piperazin-1-yl]prop-2-en-1-one] | 7.5 nM | 7.97 | 5.99 |
| Cc1cc(Nc2ncnc3ccc(N4CCN(C(=O)/C=C/CN(C)C)[C@H](C)C4)nc23)ccc1Oc1ccn2ncnc2c1 [Compound 116, (R,E)-1-(4-(4-((4-([1,2,4]triazolo[1,5-a]pyridin-7-yloxy)-3-methylphenyl)amino)pyrido[3,2-d]pyrimidin-6-yl)-2-methylpiperazin-1-yl)-4-(dimethylamino)but-2-en-1-one] | 10.1 nM | 7.66 | 5.75 |
| C=CC(=O)N1CCN(c2ccc3ncnc(Nc4ccc(Oc5ccc6c(c5)ncn6C)c(C)c4)c3n2)C[C@H]1C [Compound 48, 1-[(2R)-2-methyl-4-[4-({3-methyl-4-[(1-methyl-1,3-benzodiazol-5-yl)oxy]phenyl}amino)pyrido[3,2-d]pyrimidin-6-yl]piperazin-1-yl]prop-2-en-1-one] | 18.3 nM | 7.48 | 5.92 |
| C=CC(=O)N1CCN(c2ncc3ncnc(Nc4ccc(Cc5ccn6ncnc6c5)c(C)c4)c3n2)C[C@H]1C [Compound 111, (R)-1-(4-(8-((4-([1,2,4]triazolo[1,5-a]pyridin-7-ylmethyl)-3-methylphenyl)amino)pyrimido[5,4-d]pyrimidin-2-yl)-2-methylpiperazin-1-yl)prop-2-en-1-one] | 22.7 nM | 7.55 | 5.26 |
| C=CC(=O)N1CCN(c2cc3c(Nc4ccc(Oc5ccc6c(c5)ncn6C)c(C)c4)ncnc3cn2)CC1 [Compound 106, 1-{4-[4-({3-methyl-4-[(1-methyl-1,3-benzodiazol-5-yl)oxy]phenyl}amino)pyrido[3,4-d]pyrimidin-6-yl]piperazin-1-yl}prop-2-en-1-one formic acid] | 10.3 nM | 7.74 | 5.97 |
| C=CC(=O)N1CCN(c2ccc3ncnc(Nc4ccc(Oc5ccn6ncnc6c5)c(C)c4)c3n2)CC1 [Compound 4, 1-(4-{4-[(3-methyl-4-{[1,2,4]triazolo[1,5-a]pyridin-7-yloxy}phenyl)amino]pyrido[3,2-d]pyrimidin-6-yl}piperazin-1-yl)prop-2-en-1-one] | 8.19 nM | 8.07 | 6.43 |
| C=CC(=O)N1CCN(c2ccc3ncnc(Nc4ccc(Oc5ccn6ncnc6c5)c(C)c4)c3n2)[C@H](C)C1 [Compound 11, 1-[(3R)-3-methyl-4-{4-[(3-methyl-4-{[1,2,4]triazolo[1,5-a]pyridin-7-yloxy}phenyl)amino]pyrido[3,2-d]pyrimidin-6-yl}piperazin-1-yl]prop-2-en-1-one] | 17.9 nM | 7.79 | 5.63 |
| C=CC(=O)N1CCN(c2ccc3ncnc(Nc4ccc(Oc5ccn6ncnc6c5)c(C)c4)c3c2)CC1 [Compound 7, 1-(4-{4-[(3-methyl-4-{[1,2,4]triazolo[1,5-a]pyridin-7-yloxy}phenyl)amino]quinazolin-6-yl}piperazin-1-yl)prop-2-en-1-one] | 8.65 nM | 7.89 | 6.16 |
| C=CC(=O)N1CCN(c2ccc3ncnc(Nc4ccc(Oc5ccn6ncnc6c5)c(C)c4)c3n2)CC12CC2 [Compound 118, 1-(7-{4-[(3-methyl-4-{[1,2,4]triazolo[1,5-a]pyridin-7-yloxy}phenyl)amino]pyrido[3,2-d]pyrimidin-6-yl}-4,7-diazaspiro[2.5]octan-4-yl)prop-2-en-1-one] | 7.76 nM | 7.94 | 6.97 |
| C=CC(=O)N1C2CCC1CN(c1ccc3ncnc(Nc4ccc(Cc5ccc6c(c5)ncn6C)c(C)c4)c3n1)C2 [Compound 123, 1-(3-(4-((3-methyl-4-((1-methyl-1H-benzo[d]imidazol-5-yl)methyl)phenyl)amino)pyrido[3,2-d]pyrimidin-6-yl)-3,8-diazabicyclo[3.2.1]octan-8-yl)prop-2-en-1-one] | 9.61 nM | 7.28 | 5.90 |
| Cc1cc(Nc2ncnc3ccc(N4CCN(C(=O)/C=C/CN(C)C)[C@H](C)C4)nc23)ccc1Oc1ccc2c(c1)ncn2C [Compound 80, (2E)-4-(dimethylamino)-1-[(2R)-2-methyl-4-[4-({3-methyl-4-[(1-methyl-1,3-benzodiazol-5-yl)oxy]phenyl}amino)pyrido[3,2-d]pyrimidin-6-yl]piperazin-1-yl]but-2-en-1-one] | 11.3 nM | 7.54 | 5.56 |
